Source: PubChem BioAssay (NCI)
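Cells were grown in 96-well plates and exposed to each compound for 48 hours at five concentrations; endpoints were interpolated linearly between bracketing concentrations, or set to the highest concentration if not reached. TGI: total growth inhibition.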

Legend:
Assay in all cases: NCI anticancer screen, dose series, 48 h
NCI/ADR-RES ovarian = system: NCI/ADR-RES ovarian
U251 CNS = system: U251 CNS
HOP-62 NSCLC = system: HOP-62 NSCLC
COLO 205 colon = system: COLO 205 colon
BT-549 breast = system: BT-549 breast
K-562 leukemia = system: K-562 leukemia
HCT-15 colon = system: HCT-15 colon
IGROV1 ovarian = system: IGROV1 ovarian
SF-539 CNS = system: SF-539 CNS
HS 578T breast = system: HS 578T breast

Row | SMILES | TGI (NCI/ADR-RES ovarian) | TGI (U251 CNS) | TGI (HOP-62 NSCLC) | TGI (COLO 205 colon) | TGI (BT-549 breast) | TGI (K-562 leukemia) | TGI (HCT-15 colon) | TGI (IGROV1 ovarian) | TGI (SF-539 CNS) | TGI (HS 578T breast)
1 | COc1ccc2c(c1)c(=O)c1c(NCCNCCO)ccc3c(=O)n(CCN(C)C)c(=O)n2c31 | 15 µM | 0.937 µM | 2.4 µM | 0.247 µM | 2.49 µM | 0.333 µM | 6.39 µM | 1.46 µM | 0.612 µM | 0.581 µM
2 | CCOC(=O)NC(Nc1c(F)c(F)c(F)c(F)c1F)(C(F)(F)F)C(F)(F)F | > 100 µM | > 100 µM | > 100 µM | > 100 µM | > 100 µM | > 100 µM | > 100 µM | > 100 µM | > 100 µM | > 100 µM
3 | C[C@H]1[C@H](C)CC[C@]2(C(=O)OC3OC(CO)C(O)C(O)C3O)CC[C@]3(C)C(=CC[C@@H]4[C@@]5(C)C[C@H]6OC(=O)c7cc(O)c(O)c(O)c7-c7c(cc(O)c(O)c7O)C(=O)O[C@@H]6C(CO)(CO)[C@@H]5CC[C@]43C)[C@H]12 (stereo not given in full) | > 100 µM | 42.2 µM | > 100 µM | > 100 µM | > 100 µM | > 100 µM | > 100 µM | > 100 µM | > 100 µM | > 100 µM
4 | C(=C\c1ccccc1)/COc1ccccc1C(N1CCOCC1)n1nc2ccccc2n1 (stereo not given) | 22.6 µM | 17.6 µM | 20.4 µM | 36.6 µM | 26.4 µM | 4.26 µM | 11.7 µM | 41.6 µM | 6.62 µM | 41.2 µM
5 | COc1ccc(OC)c2sc(N3C(=O)/C(=C/c4cccc([N+](=O)[O-])c4)N=C3c3ccccc3)nc12 | > 100 µM | > 100 µM | > 100 µM | > 100 µM | > 100 µM | 63.7 µM | > 100 µM | > 100 µM | > 100 µM | > 100 µM
6 | O=C(OCC1OC(n2nc(Cn3nnc(-c4cccnc4)n3)n(-c3cccc4ccccc34)c2=S)C(OC(=O)c2ccccc2)C1OC(=O)c1ccccc1)c1ccccc1 (stereo not given) | > 100 µM | > 100 µM | > 100 µM | > 100 µM | > 100 µM | > 100 µM | > 100 µM | > 100 µM | > 100 µM | > 100 µM
7 | CC(C)/C(Cl)=N/OC(=O)Nc1ccc(OC(F)(F)F)cc1 | 33.6 µM | 31.2 µM | 31.7 µM | 3.26 µM | 29.8 µM | 4.15 µM | 18.8 µM | 30.5 µM | 31.3 µM | 43 µM
8 | Clc1ccc(/C(=C\c2ccccc2)Cn2ccnc2)cc1 | 38 µM | 31.2 µM | 38.3 µM | 28.6 µM | 38 µM | > 100 µM | 39.1 µM | > 100 µM | 31.5 µM | > 100 µM
9 | CCOC(=O)c1ccc(Nc2nc3ccc(C(F)(F)F)cc3nc2C(=O)OCC)cc1 | > 100 µM | > 100 µM | > 100 µM | > 100 µM | > 100 µM | > 100 µM | > 100 µM | > 100 µM | > 100 µM | > 100 µM
10 | CN(C)CCCNC(=O)c1c(O)c2ccccc2n(C)c1=O | > 100 µM | > 100 µM | > 100 µM | > 100 µM | > 100 µM | > 100 µM | > 100 µM | > 100 µM | > 100 µM | > 100 µM
11 | Cc1cc(NS(=O)(=O)c2ccc(NC(NC(=O)C(C(F)(F)F)C(F)(F)F)(C(F)(F)F)C(F)(F)F)cc2)no1 | > 100 µM | > 100 µM | > 100 µM | > 100 µM | > 100 µM | > 100 µM | > 100 µM | > 100 µM | > 100 µM | > 100 µM
12 | COP(=O)(OC)C(Nc1ccc(Cc2ccc(NC(c3ccco3)P(=O)(OC)OC)cc2)cc1)c1ccco1 (stereo not given) | > 100 µM | 21.4 µM | 20.4 µM | > 100 µM | 60 µM | > 100 µM | > 100 µM | > 100 µM | 16.2 µM | > 100 µM
13 | Cc1c(-c2ccccc2)[nH]n(C2=NCCN2)c1=O | > 100 µM | > 100 µM | > 100 µM | > 100 µM | > 100 µM | > 100 µM | > 100 µM | > 100 µM | > 100 µM | > 100 µM
14 | Cc1cc(O)c(-c2cc(O)c(C)cc2O)cc1O | 97.1 µM | 30.3 µM | 32.6 µM | 22.6 µM | 26.7 µM | 4.65 µM | > 51.1 µM | 25.9 µM | 9.35 µM | > 72.2 µM
15 | CCN(CC)CCO/N=C1\CC[C@H]2[C@@H]3CCc4cc(OC)ccc4[C@H]3CC[C@]12C | 23.9 µM | 11.6 µM | 3.73 µM | 3.03 µM | 19 µM | 2.53 µM | 1.94 µM | 10.2 µM | 3.92 µM | 7.36 µM
16 | O=C1c2cccc(O)c2C(=O)c2c(OC3OC(CO)C(O)C(O)C3O)cccc21 (stereo not given) | 68.4 µM | > 100 µM | > 100 µM | 39.2 µM | 93.3 µM | > 100 µM | 94.9 µM | > 100 µM | 58.1 µM | 58.1 µM
17 | COc1cc(C(O)c2ccc3c(c2)OCO3)cc(OC)c1OC (stereo not given) | > 100 µM | > 100 µM | > 100 µM | > 100 µM | > 100 µM | > 100 µM | > 100 µM | > 100 µM | > 100 µM | > 100 µM
18 | COc1ccc(Oc2cnn(C(Br)(Br)C(C)=O)c(=O)c2Br)cc1 | 43.9 µM | 27.8 µM | 35.5 µM | 26.9 µM | 32.1 µM | 16.9 µM | 39.8 µM | 42.8 µM | 25.4 µM | > 71.6 µM
19 | c1ccc([P+](CCCCCCCC[P+](c2ccccc2)(c2ccccc2)c2ccccc2)(c2ccccc2)c2ccccc2)cc1 | > 100 µM | > 100 µM | > 100 µM | 2.71 µM | > 100 µM | > 100 µM | > 100 µM | > 23.9 µM | 19.6 µM | > 100 µM
20 | CCNc1ncnc2sc(SCc3ccccc3)nc12 | > 100 µM | > 100 µM | > 100 µM | > 100 µM | > 100 µM | > 100 µM | > 100 µM | > 100 µM | > 100 µM | > 100 µM
21 | CC(C)=CCC[C@@H](C)C1=C(O)C(N)=C(C)C(=O)C1=O | 24.7 µM | > 100 µM | > 100 µM | > 100 µM | > 100 µM | > 100 µM | > 100 µM | > 40.2 µM | 89.5 µM | > 100 µM
22 | O=C(/C=C/c1ccc2c(c1)OCO2)Cc1nc2ccccc2[nH]c1=O | > 100 µM | 34.2 µM | 35.2 µM | > 100 µM | > 100 µM | > 100 µM | > 100 µM | > 100 µM | > 100 µM | 40 µM
23 | O=C1C=CC(=O)C(CNc2ccc(C(=O)OCc3ccccc3)cc2)=C1 | 23.5 µM | 19.9 µM | 33 µM | 3.79 µM | 9.31 µM | > 100 µM | 9.1 µM | 12.6 µM | 7.29 µM | 55.4 µM
24 | O=C(CC(=O)Nc1ccccc1)NNC(c1cc(N=Nc2ccc(Br)cc2)ccc1O)P(O)O (stereo not given) | > 10 µM | > 10 µM | > 10 µM | > 10 µM | > 10 µM | > 10 µM | > 10 µM | > 10 µM | > 10 µM | > 10 µM
25 | CCN1C(=O)C(=C/C=C/c2ccc(N(CC)CC)cc2)C(=O)N(CC)C1=S | > 100 µM | > 100 µM | 50.7 µM | > 100 µM | > 100 µM | > 100 µM | > 100 µM | > 100 µM | > 100 µM | > 100 µM
26 | CC1(C)N=C2C(=O)c3c([nH]c4ccccc34)[C@]3(C)CCC1CC23 (stereo not given in full) | > 6.25 µM | > 6.25 µM | > 6.25 µM | > 6.25 µM | > 6.25 µM | > 6.25 µM | > 6.25 µM | > 6.25 µM | > 6.25 µM | > 6.25 µM
